The text below walks through data of PubChem BioAssay (NCI).

Holding throughout (experiment): NCI tumour cell line growth inhibition, 48 h
The test system of assay [1] is MDA-N.
The subject of assay [2] is LXFL 529 NSCLC.
Assay [3] concerns SNB-78 CNS.
Assay [4] has as its system DMS 114 small cell lung.
The subject of assay [5] is M19-MEL melanoma.
Assay [6] has as its system DLD-1 colon.
Assay [7] has as its system XF 498 CNS.
For assay [8], the system named is RXF-631 renal.
Assay [9] has as its system HOP-18 NSCLC.
The subject of assay [10] is P388/ADR leukemia.
Assay [11] has as its system SN12K1 renal.

Several values for one entry are separate records, joined by “and”; a condition that tells them apart may be missing. Equal entries are not always repeated.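 Five compound concentrations were applied to cells in 96-well plates for 48 hours; endpoints were derived by simple linear interpolation of the resulting dose-response curve. GI50: concentration for 50% inhibition of growth. TGI denotes the concentration required for complete inhibition of growth.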

As to `Cc1ccc(S(=O)(=O)N2CCC(C(=O)O)(c3ccccc3)CC2)cc1`, in assay [1], the TGI was > 100 µM.
Regarding `CC(=O)OCC1OC(n2c(=S)n(-c3ccccc3)c(=O)c3cc(Br)cc(Br)c32)C(OC(C)=O)C(OC(C)=O)C1OC(C)=O` (stereo unspecified), the TGI was > 100 µM in [2]; > 100 µM in assay [3]; > 100 µM in assay [4]; > 100 µM in [5]; > 100 µM in [6]; 69.7 µM and > 100 µM in [7]. In addition, the GI50 in [7] was 17.2 µM and 49.1 µM.
For the compound `Nc1nc(=S)c2[nH]cnc2[nH]1`, the TGI in [2] came out at 233 µM; in assay [8] it was 113 µM; in assay [3] it was 172 µM; in assay [4] it was 36.3 µM; in assay [5], 205 µM; in assay [9], 139 µM. Further, the TGI was 12.9 µM in assay [10], 11.2 µM in assay [11], 202 µM in assay [6] and 8.35 µM in assay [7]. The GI50 in assay [1] was 0.541 µM and 1.24 µM.
For `O=NN(CCCl)C(=O)NC1CCCCC1`, the GI50 in [2] is 17.3 µM; in assay [8], 25 µM; in assay [4], 20.7 µM and 70.3 µM; in assay [5], 27.4 µM and 60.2 µM; in assay [9], 84.4 µM; in assay [6] it was 18.4 µM and 42.2 µM. Besides, the GI50 in assay [7] was 18 µM and 82 µM. Besides, the TGI in [2] was 32.8 µM and 111 µM and 76.6 µM; in assay [8], 132 µM; in assay [4] it was 38.8 µM and 112 µM and 183 µM; in assay [5], 81.5 µM and 123 µM and 163 µM; in assay [9] it was 56.2 µM and 152 µM; in assay [10], 47.4 µM. Further, the TGI is 134 µM in [1]; 101 µM in [11]; 39.2 µM and 98.6 µM and 86.2 µM in assay [6]; 36.4 µM and 128 µM and 114 µM in [7].
As to `Nc1nc(=S)[nH]c(C(=O)Nc2nccs2)c1-c1ccccc1`, the TGI in assay [2], in [3], in assay [4], in assay [5], in assay [9] and in [6] was > 100 µM each time. In assay [7], the TGI was > 100 µM.
Consider `C[C@]12CCC3=NCCN3C1=CC[C@@H]1[C@@H]2CC[C@@]2(C)[C@H]1CC[C@]2(C)O`, for which the TGI in assay [1] is > 100 µM.
As for `CN(C)c1ccc(O[Si](Oc2ccc(N(C)C)cc2)(Oc2ccc(N(C)C)cc2)Oc2ccc(N(C)C)cc2)cc1`, the TGI in [2], in [4], in assay [5], in assay [9], in [6] and in [7] was > 100 µM throughout.
For `CN(C)c1ccc(C2CC(C)(O)Oc3cc4c(cc32)OCO4)cc1` (stereo unspecified), the TGI in assay [1] is > 100 µM.
`N#CCCN(CCC#N)c1ccc(C=Nc2ccc(F)cc2)cc1`: the TGI in assay [2] was > 100 µM; in [8] it was > 100 µM; in [3], > 100 µM; in assay [4] it was > 100 µM; in [5], > 44.5 µM; in assay [9], > 100 µM. The TGI in [1], in assay [6] and in [7] was > 100 µM each time.
For `C=C(Cl)[C@@](Cl)(CBr)CC[C@@H](Br)C(C)(C)Cl`, in assay [1], the GI50 is 1.69 µM.
Regarding `COC(=O)c1sc(=NC(=S)N2CCCCC2)sc1C(=O)OC`, the TGI in assay [2], in assay [8], in assay [3], in assay [4], in [5] and in [9] was > 100 µM throughout. Also, in [6], the TGI is > 100 µM.
Take `NNC(=O)N/N=C1\CN(c2ccc(Cl)cc2Cl)C(=O)C(=O)C1c1nc2ccccc2o1` (stereo unspecified): the TGI in assay [2], in assay [8], in assay [3], in [4], in assay [5] and in [6] was > 100 µM each time. Besides, the TGI in [7] is > 100 µM.
Compound `O=C(Oc1ccc2c(c1)CN(Cc1ccccc1)CO2)c1ccccc1` came in with a TGI in [1] of 30.7 µM.
Turning to `COc1ccc(C(=O)O/N=C2/CCCCC2CN(C)C)cc1` (stereo unspecified), the TGI in assay [2], in assay [8], in assay [3], in assay [5], in assay [9] and in assay [6] was > 100 µM throughout.
As to `CC1CC(C)C(C(O)CC2CC(=O)N(c3ccccc3)C(=O)C2)C(O)C1` (stereo unspecified), the TGI in assay [2], in [3], in [4], in assay [5], in assay [9] and in assay [6] was > 100 µM each time.
As for `O=C(CC1=Nc2nnc(-c3nnc4n3C(=O)C(CC(=O)C3CC3)=N4)n2C1=O)C1CC1`, the TGI in assay [2], in [3], in assay [4], in [5] and in assay [6] was > 100 µM each time.
Regarding `CCCCC[C@@H](C/C=C/CCC(=O)NC/C(=C/Cl)[C@H]1C(=O)C(C)(C)C(=O)[C@@H](C)[C@@]1(C)O)OC`, in assay [1], the GI50 is 18.4 µM and the TGI is 36.1 µM.
With `Cc1ccc(C2=C(Cl)C(=O)C(c3ccc(C)cc3)=C(Cl)C2=O)cc1`, in [1], the TGI is > 100 µM.
With `c1ccc2c3c([nH]c2c1)C1C2CCCCN2C(c2ccncc2)N1CC3` (stereo unspecified), the TGI in assay [2] was > 100 µM; in assay [3], > 100 µM; in assay [4], 83.5 µM; in assay [5], > 100 µM; in [7], 98 µM.
Regarding `COc1cc(N(CCC#N)CCC#N)ccc1/C(N=Nc1ccc(C(=O)O)cc1)=N/NC(=O)c1cc(Br)ccc1O`, in [1], the GI50 is 108 µg/mL and the TGI is > 150 µg/mL.
As for `OCC(O)C(O)C(O)C(O)c1nn[nH]n1` (stereo unspecified), the TGI in assay [2], in [3], in assay [4], in [5], in assay [6] and in assay [7] was > 100 µM in each case.
`Nc1ccc(C(=O)/C=C/c2ccccc2O)cc1`: the TGI in assay [2], in assay [8], in assay [3], in assay [5], in assay [6] and in assay [7] was > 100 µM in each case.
`COCC1N=C(c2cc(OC)c(OC)c(OC)c2-c2cc3c(cc2[C@H](C)O)OCO3)O[C@H]1c1ccccc1` (stereo partly specified): the TGI in assay [2], in assay [8], in assay [3], in assay [5], in [9] and in assay [6] was > 100 µM in each case.
For `[Cl-].[Gd+3].[O-]/N=C(\c1ccccc1)c1ccccn1.[O-]/N=C(\c1ccccc1)c1ccccn1.[O-]/N=C(\c1ccccc1)c1ccccn1`, the GI50 in assay [2] is 50.1 µM; in assay [4], 36.8 µM; in assay [5], 52.7 µM; in assay [6], 39.9 µM. The TGI in assay [2], in assay [4], in [5] and in assay [6] was > 100 µM throughout.
With `CN(C)c1ccc(N=C2C=CC(=C(C#N)C#N)c3ccccc32)cc1`, the TGI is 16.7 µM in [3]; 0.666 µM in [4]; 5.8 µM in [5]; 16.3 µM in assay [9]; 0.441 µM in [1]; 16.1 µM in assay [6]. The compound further registered a TGI in assay [7] of 1.65 µM.
For `CC1OC(OC2C(O[C@H]3CC[C@@]4(C)C(=CC[C@H]5[C@@H]6C[C@@H]7O[C@]8(CC[C@@H](C)CO8)[C@@H](C)[C@@H]7[C@@]6(C)CC[C@@H]54)C3)OC(CO)C(OC3OC(CO)C(O)C3O)C2O)C(O)C(O)C1O` (stereo partly specified), in assay [1], the GI50 was 1.13 µM; the TGI was 1.46 µM and 2.34 µM.
For `Nc1ncnc2c1nc(Cl)n2C1OC(CO)C(O)C1O` (stereo unspecified), in assay [1], the TGI is > 100 µM.
Regarding `CCCCCCCCCCCCCCC(C)CCC(=O)O` (stereo unspecified), the TGI in assay [3], in [5], in assay [9], in assay [6] and in [7] was > 100 µM each time.
For `CC(=O)[O-].[Mn+3].[O-]c1ccc(Cl)cc1C=NCCN=Cc1cc(Cl)ccc1[O-]`, the GI50 in assay [2] is > 100 µM; in [3], > 100 µM; in assay [4] it was > 100 µM; in [5] it was > 100 µM; in assay [9], 51.9 µM; in assay [6], 36.9 µM. In addition, the TGI in assay [2], in assay [3], in assay [4], in assay [5], in assay [9] and in assay [6] was > 100 µM each time.
